The results in this text go back to patent US20250249045A1, “COMPOSITIONS AND METHODS RELATED TO EXTRACELLULAR VESICLE THERAPEUTIC DELIVERY PLATFORM” (priority 2022, published 2025).

In experiment [1] the test system is SARS-CoV-2 pseudovirus. Details: species or system mice. The following applies: mouse.
Experiment [2] has as its system SARS-CoV-2 pseudovirus. The experiment is classed as cell-based.

As to rhACE2, the “pseudovirus signals in lung, ex-vivo fluorescence imaging” value in the experiment with SARS-CoV-2 pseudovirus [1] was “failed to block SARS-CoV-2 pseudovirus entry”. In the experiment on SARS-CoV-2 pseudovirus [2], the “entry of SARS-CoV-2 pseudovirus into ACE2-expressing A549 cells” value was “efficiently blocked the infection” and the “pseudovirus neutralization by flow cytometry” value is given as “efficiently neutralized”.
